From patent US6433167B1, “Triazolo-1,4-diazepine compounds and medicinal composition containing the same” (Nikken Chemicals Co., Ltd., priority 1997, dated 2002)

Experiments:
[1] = tested on: platelet activating factor (PAF)-induced aggregation of platelet rich plasma (PRP); test: PAF antagonistic action test (PAF-induced platelet aggregation in platelet rich plasma); type: cell-based, Japanese white rabbits; settings: test compound final concentration 10^−7M; PAF final concentration 17 nM; rabbit PRP, 37° C.
Protocol: Japanese white rabbits (2.5 to 3.0 kg, Clean Experimental Animal Center) were used. Nine volumes of blood were taken with respect to one volume of 3.8% sodium citrate from the carotid under anesthesia by pentobarbitol. This was centrifuged at 1000 rpm and room temperature for 10 minutes. The top layer was used as the platelet rich plasma (PRP). The lower layer was further centrifuged at 3000 rpm and room temperature for 10 minutes to obtain the platelet poor plasma (PPP).
5 μl (final concentration 10^−7M) of the test compound was added to 90 μl of PRP. This was incubated at 37° C. for 3 minutes, then a platelet activating factor (PAF, final concentration 17 nM) was added to cause aggregation and the aggregation reaction was measured for 5 minutes using an aggrigometer (MC Medical, PAT-606).

[2] = target: T1, TxA2 synthesis in human blood platelet microsomes (Homo sapiens, UniProt P24557); test: TxA2 synthesis inhibiting action test (TxB2 by EIA); type: biochemical; settings: test compound final concentration 10^−7M, human blood platelet microsomes 50 μg protein/ml, prostaglandin H2 substrate
T1 construct: containing human blood platelet microsomes (50 μg protein/ml); from tissue; host or cells: human blood platelet microsomes
T1 sequence (P24557 1-533): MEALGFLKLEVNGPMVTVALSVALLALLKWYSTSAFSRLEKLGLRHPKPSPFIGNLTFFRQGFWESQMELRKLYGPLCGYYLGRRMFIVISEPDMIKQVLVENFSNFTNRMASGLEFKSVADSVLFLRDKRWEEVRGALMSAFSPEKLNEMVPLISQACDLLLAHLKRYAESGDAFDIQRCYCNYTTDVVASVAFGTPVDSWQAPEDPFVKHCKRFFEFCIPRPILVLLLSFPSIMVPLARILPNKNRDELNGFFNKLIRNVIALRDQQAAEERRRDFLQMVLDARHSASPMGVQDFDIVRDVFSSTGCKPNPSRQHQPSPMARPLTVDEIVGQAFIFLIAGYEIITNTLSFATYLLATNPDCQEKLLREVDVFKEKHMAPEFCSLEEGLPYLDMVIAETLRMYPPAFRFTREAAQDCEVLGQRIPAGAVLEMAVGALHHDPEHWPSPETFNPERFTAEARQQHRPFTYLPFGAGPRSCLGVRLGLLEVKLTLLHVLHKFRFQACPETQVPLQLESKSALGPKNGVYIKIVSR
Protocol: 1 ml of a buffer (20 MM Tris-HCl buffer, 1 mM EDTA, pH 7.5) containing human blood platelet microsomes (50 μg protein/ml) and the test compound (final concentration 10^−7M) was agitated, then incubated at 0° C. for 30 minutes. To this was added prostaglandin H2 (100 ng/2 μl). This was incubated at 23° C. for 3 minutes to cause a reaction. Next, 1M hydrochloric acid was added to make the solution acidic and stop the reaction, then this was neutralized by 1M Tris-Base and centrifuged at 3000 rpm for 20 minutes. The amount of the TxB2 in the supernatant was measured by the EIA method (Cayman Co. kit).
The test results are shown in Table II. a Further, as controls, UK-74,505 having a PAF antagonistic action and OKY-046 having a TxA2 synthesis inhibiting action were used.

[3] = tested on: rats or mice; test: Acute toxicity test; type: in vivo; settings: administered intravenously, 10 mg/kg

| SMILES | PAF antagonistic action Rate of suppression at 10^−7 M (%) [1] [%] | inhibition at 0.1 µM ([2]; read-out: TxA2 synthesis inhibiting action Rate of suppression at 10^−7 M (%)) [%] | Deaths after intravenous administration [3] | TxA2 synthesis inhibiting action Rate of suppression at 10^−7 M (%) [2] [%] |
| --- | --- | --- | --- | --- |
| CCOC(=O)CCCCON=C(c1cccnc1)c1ccccc1C(=O)N1CCc2c(sc3c2C(c2ccccc2Cl)=NC(C)c2nnc(C)n2-3)C1 (mixture of isomers) [Compound 1, 6-(2-Chlorophenyl)-3-[2-[((E/Z)-4-ethoxycarbonylbutyloxyimino)(3-pyridyl)methylene]phenylcarbonyl]-8,11-dimethyl-2,3,4,5-tetrahydro-8H-pyrido[4′,3′:4,5]thieno[3,2-f][1,2,4]triazolo[4,3-a][1,4]diazepine] | 82.0 | 53 | – | – |
| CCOC(=O)CCCCON=C(c1ccc(CC(=O)N2CCc3c(sc4c3C(c3ccccc3Cl)=NC(C)c3nnc(C)n3-4)C2)cc1)c1cccnc1 (mixture of isomers) [Compound 4, 6-(2-Chlorophenyl)-3-[4-[((E/Z)-4-ethoxycarbonylbutyloxyimino)(3-pyridyl)methyl]phenylmethylcarbonyl]-8,11-dimethyl-2,3,4,5-tetrahydro-8H-pyrido[4′,3′:4,5]thieno[3,2-f](1,2,4]triazolo[4,3-a][1,4]diazepine] | 94.6 | – | no deaths were observed | 79.6 |
| CCOC(=O)CCCCON=C(c1cccnc1)c1cccc(CCCC(=O)N2CCc3c(sc4c3C(c3ccccc3Cl)=NC(C)c3nnc(C)n3-4)C2)c1 (mixture of isomers) [Compound 5, 6-(2-Chlorophenyl)-3-[3-[3-[((E/Z)-4-ethoxycarbonylbutyloxyimino)(3-pyridyl)methyl]phenyl]propylcarbonyl]-8,11-dimethyl-2,3,4,5-tetrahydro-8H-pyrido[4′,3′:4,5]thieno[3,2-f][1,2,4]triazolo[4,3-a][1,4]diazepine] | 95.5 | – | – | 40.3 |
| CCOC(=O)CCCCON=C(c1ccc(COCC(=O)N2CCc3c(sc4c3C(c3ccccc3Cl)=NC(C)c3nnc(C)n3-4)C2)cc1)c1cccnc1 (mixture of isomers) [Compound 6, 6-(2-Chlorophenyl)-3-[4-[((E/Z)-4-ethoxycarbonylbutyloxyimino)(3-pyridyl)methyl]phenylmethyloxymethylcarbonyl]-8,11-dimethyl-2,3,4,5-tetrahydro-8H-pyrido[4′,3′:4,5]thieno[3,2-f][1,2,4]triazolo[4,3-a][1,4]diazepine] | 79.8 | – | no deaths were observed | 75.6 |
| CCOC(=O)CCCCON=C(c1cccnc1)c1cccc(CN2CCc3c(sc4c3C(c3ccccc3Cl)=NC(C)c3nnc(C)n3-4)C2)c1 (mixture of isomers) [Compound 7, 6-(2-Chlorophenyl)-3-[3-[((E/Z)-4-ethoxycarbonylbutyloxyimino)(3-pyridyl)methyl]phenylmethyl]-8,11-dimethyl-2,3,4,5-tetrahydro-8H-pyrido[4′,3′:4,5]thieno[3,2-f][1,2,4]triazolo[4,3-a][1,4]diazepine] | 94.0 | – | – | 58.2 |
| Cc1nnc2n1-c1sc3c(c1C(c1ccccc1Cl)=NC2C)CCN(Cc1cccc(C(=NOCCCCC(=O)O)c2cccnc2)c1)C3 (mixture of isomers) [Compound 8, 6-(2-Chlorophenyl)-3-[3-[((E/Z)-4-carboxydibutyloxyimino)(3-pyridyl)methyl]phenylmethyl]-8,11-dimethyl-2,3,4,5-tetrahydro-8H-pyrido[4′,3′:4,5]thieno[3,2-f][1,2,4]triazolo[4,3-a][1,4]diazepine] | 52.0 | – | – | 81.7 |
| CCOC(=O)CCCCC=C(c1ccc(CN2CCc3c(sc4c3C(c3ccccc3Cl)=NC(C)c3nnc(C)n3-4)C2)cc1)c1cccnc1 (mixture of isomers) [Compound 11, 6-(2-Chlorophenyl)-3-[4-[((E/Z)-5-ethoxycarbonylpentylidene)(3-pyridyl)methyl]phenylmethyl]-8,11-dimethyl-2,3,4,5-tetrahydro-8H-pyrido[4′,3′:4,5]thieno[3,2-f][1,2,4]triazolo[4,3-a][1,4]diazepine] | 94.2 | – | – | 83.7 |
| O=C(O)/C=C/c1ccc(Cn2ccnc2)cc1 [OKY-046, reference compound] | 0 | – | – | 84.5 |
| CCOC(=O)C1=C(c2ccc(-n3c(C)nc4cnccc43)cc2)NC(C)=C(C(=O)Nc2ccccn2)C1c1ccccc1Cl (centres unmarked) [UK-74,505, reference compound] | 89.0 | – | – | 0 |
